This test deals with Human umbilical vein endothelial cells (HUVECs). The test can be described thus: HUVEC-Matrigel tube formation assay. The test is classed as cell-based. The following applies: free S1P solution, 17 h. Here is the method: The electrospun meshes were punched into circles of 6.3 mm in diameter, weighed and sterilized with UV irradiation (254 nm, 1 h for each side). Fresh S1P solutions in PBS were carefully loaded onto each mesh (for S1P release study: 5 μL of 0.76-μg/μL solution to achieve 3.8-μg S1P loading per mesh; for tube formation assay: 2 or 10 μL of 0.19-μg/μL solution to achieve 0.38-μg or 1.90-μg S1P loading per mesh). The S1P-loaded meshes were incubated at 37° C. for 1 h and 4° C. for another 4 h before they were air-dried in laminar flow hood overnight.
Human umbilical vein endothelial cells (HUVECs, ATCC, passage 6), were cultured on gelatin-coated plates in M199 medium with 20% fetal bovine serum (FBS), 3 ng/mL bFGF, 5 units/mL heparin and 100 U/100 μg/mL Pen/Strep at 37° C. under 5% CO2. The 96-well culture plate was coated with 50 μL/well growth factor reduced Matrigel and incubated at 37° C. for 0.5 h to allow Matrigel to solidify. Then HUVECs suspended in 100 μL of M199 medium with 0.1% FBS and 100 U/100 μg/mL Pen/Strep were seeded on the Matrigel at 2×10^4 cells/well. After 30 min of cell attachment, PBS solutions of S1P or S1P-loaded meshes were carefully added to each well, followed by continued incubation at 37° C. for 17 h. After removing the meshes and culture media, the HUVECs were fixed with 10% formalin saline solution and imaged with an Axiovert 40 CFL microscope equipped with a QImaging camera at 25× and 100× magnifications. The total tube length in each well (n=3-4) was quantified by ImageJ (NIH).

Turning to `CCCCCCCCCCCCC/C=C/[C@@H](O)[C@@H](N)COP(=O)(O)O` [S1P, Sphingosine-1-phosphate], the total tube length result runs as follows: (1-μM, no polymer carrier) “increased”; (10-μM, no polymer carrier) “proangiogenic effect was compromised”; (50-μM, vs. no-S1P control) “significantly inhibited tube formation”.

For the origin of these results see US9999704B2, “Amphiphilic degradable polymers for immobilization and sustained delivery of biomolecules” (University of Massachusetts, priority 2014, dated 2018).
